# Tests used:
# Assay type in all cases: cell-based
# PfCRT^Dd2 [1] = molecular target: T1, PfCRT^Dd2 (Plasmodium falciparum, UniProt Q9N623, A220S/I356T/K76T/M74I/N326S/N75E/Q271E/R371I); test: [3H]CQ uptake into Xenopus oocytes, cis-inhibition by unlabelled solute; conditions: PfCRTDd2 oocytes, background [3H]CQ accumulation subtracted, normalised to oocyte type control
# From the text: (§1) The orientation of PfCRT in the parasite’s DV membrane, and also in the oocyte plasma membrane, is such that its N- and C-termini extend into the cytosol. The oocytes were suspended in a reaction buffer adjusted to pH 5.5 to mimic the pH of the DV lumen[1],[2]. In this scenario, the transport of a substrate via PfCRT from the acidic extracellular solution into the oocyte cytosol[15] is analogous to the parasite’s PfCRT-mediated efflux of a substrate from the acidic DV and into the cytosol. Unless specified otherwise, this is the direction in which substrate transport was measured in the oocyte assays.
# (§2) Unless specified otherwise, the transport assays were conducted over 1.5 h at 27.5 °C and the reaction buffer was ND96 (96 mM NaCl, 2 mM KCl, 1 mM MgCl2, 1.8 mM CaCl2, 10 mM MES and 10 mM Tris-base) at pH 5.5.
# (§3) Ten oocytes were washed twice with the relevant ND96 buffer. […] The assay was terminated by removing the reaction buffer and washing the oocytes with ice-cold ND96 buffer. The oocytes were lysed in 10% (w/v) sodium dodecyl sulfate (SDS) and the radioactivity accumulated within each oocyte was measured with a MicroBeta^2 microplate liquid scintillation analyser (PerkinElmer).
# (§4) At least four independent experiments were performed (on different days and using oocytes from different frogs), and within each experiment measurements were made from ten oocytes per treatment.
# PfCRT^Ecu1110 [2] = molecular target: T2, PfCRT^Ecu1110 (Plasmodium falciparum, UniProt Q9N623, A220S/I356L/K76T/N326D); test: as above; conditions: for PfCRT-mediated [3H]CQ transport, cis-inhibition (% PfCRTEcu1110 control): PfCRTEcu1110 oocytes, background [3H]CQ accumulation subtracted, normalised to oocyte type control; for [3H]CQ transport (% PfCRTEcu1110 control), cis-inhibition, PfCRTEcu1110: PfCRT-mediated component (background subtracted), sheet title says normalised to PfCRTDd2 control, mean ± SEM, SEM
# T2 sequence (Q9N623 whole entry A220S/I356L/K76T/N326D): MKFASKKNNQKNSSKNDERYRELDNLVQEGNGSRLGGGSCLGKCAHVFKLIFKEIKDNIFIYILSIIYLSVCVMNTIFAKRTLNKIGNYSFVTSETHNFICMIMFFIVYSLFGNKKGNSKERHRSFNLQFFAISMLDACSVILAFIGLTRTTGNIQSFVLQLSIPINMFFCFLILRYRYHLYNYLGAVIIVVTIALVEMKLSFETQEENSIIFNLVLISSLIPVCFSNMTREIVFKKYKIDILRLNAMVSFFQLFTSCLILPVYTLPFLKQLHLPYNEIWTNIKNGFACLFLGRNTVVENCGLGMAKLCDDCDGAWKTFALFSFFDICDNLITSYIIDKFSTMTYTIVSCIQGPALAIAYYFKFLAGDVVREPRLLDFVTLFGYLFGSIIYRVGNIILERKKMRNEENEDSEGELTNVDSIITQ
# From the text: as §1, §2, §3, §4
# PfCRT^3D7 = PfCRT^3D7 (Plasmodium falciparum, UniProt Q8IBZ9); test: cell-based; conditions: for PfCRT-mediated [3H]CQ transport, trans-stimulation (% PfCRT3D7 control): PfCRT3D7 oocytes, normalised to oocyte type control
# Chain of PfCRT^3D7 (Q8IBZ9 59-398): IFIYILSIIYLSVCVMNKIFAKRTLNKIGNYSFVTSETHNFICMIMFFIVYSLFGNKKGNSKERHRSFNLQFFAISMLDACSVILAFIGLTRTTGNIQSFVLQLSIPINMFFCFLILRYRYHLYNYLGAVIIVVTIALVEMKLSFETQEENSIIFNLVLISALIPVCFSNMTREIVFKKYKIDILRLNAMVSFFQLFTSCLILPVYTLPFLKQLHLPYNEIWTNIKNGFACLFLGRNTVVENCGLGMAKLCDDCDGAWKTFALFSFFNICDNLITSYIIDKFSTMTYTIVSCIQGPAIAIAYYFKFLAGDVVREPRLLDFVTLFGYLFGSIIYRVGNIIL
# Description: as §2
# (§5) The intracellular concentrations were calculated using previous estimates of the volume of stage V–VI oocytes (~400 nL[60]). […] The oocytes were injected with VF-6 suspended in 25 nL ND96 buffer adjusted to pH 5.0, 5.5, 6.0 or 7.0, which corresponded to the injection of 2.5–250 fmol of H^+. The Na^+-dependence of the trans-stimulatory effect of VF-6 was assessed by injecting the oocytes with VF-6 suspended in ND96 buffer (pH 5.5) or a Na^+-free version of this buffer (the Na^+ was replaced with choline).
# as §4
# PfCRT^Dd2 [3] = molecular target: T1, PfCRT^Dd2; test: cell-based; conditions: for PfCRT-mediated [3H]CQ transport, trans-stimulation (% PfCRTDd2 control): PfCRTDd2 oocytes, normalised to oocyte type control; for [3H]CQ transport (% PfCRTDd2 control), trans-stimulation, PfCRTDd2: PfCRT-mediated component (background subtracted), mean ± SEM, SEM
# Description: as §2, §5, §4
# PfCRT^Ecu1110 [4] = molecular target: T2, PfCRT^Ecu1110; test: cell-based; conditions: for PfCRT-mediated [3H]CQ transport, trans-stimulation (% PfCRTEcu1110 control): PfCRTEcu1110 oocytes, normalised to oocyte type control; for [3H]CQ transport (% PfCRTDd2 control), trans-stimulation, PfCRTEcu1110: PfCRT-mediated component (background subtracted), sheet title says normalised to PfCRTDd2 control, mean ± SEM, SEM
# Description: as §2, §5, §4
# [5] = [test solute]i = 5 mM (intracellular)
# [6] = [test solute]i = 45 mM (intracellular; 30 mM for some solutes due to solubility)
# [7] = [test solute]i = 5 mM (injected)
# [8] = [test solute]i = 45 mM (30 mM for some solutes due to solubility)
# T1 sequence (Q9N623 whole entry A220S/I356T/K76T/M74I/N326S/N75E/Q271E/R371I): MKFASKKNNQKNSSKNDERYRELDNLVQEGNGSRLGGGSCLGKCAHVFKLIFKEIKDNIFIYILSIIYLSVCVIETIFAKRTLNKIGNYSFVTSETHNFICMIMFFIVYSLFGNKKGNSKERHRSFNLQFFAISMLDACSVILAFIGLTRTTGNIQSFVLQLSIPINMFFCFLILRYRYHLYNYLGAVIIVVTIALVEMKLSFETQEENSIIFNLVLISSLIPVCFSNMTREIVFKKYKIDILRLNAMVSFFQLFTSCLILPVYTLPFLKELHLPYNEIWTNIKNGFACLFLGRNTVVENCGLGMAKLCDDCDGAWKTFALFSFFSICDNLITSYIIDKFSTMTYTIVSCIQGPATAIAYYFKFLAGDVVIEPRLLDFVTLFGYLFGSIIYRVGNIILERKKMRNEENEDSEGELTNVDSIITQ
Substance,"PfCRT-mediated [3H]CQ transport, cis-inhibition (% PfCRTDd2 control) (PfCRT^Dd2 [1]; [test solute] = 0.5 mM)","PfCRT-mediated [3H]CQ transport, cis-inhibition (% PfCRTDd2 control) (PfCRT^Dd2 [1]; [test solute] = 1 mM)","PfCRT-mediated [3H]CQ transport, cis-inhibition (% PfCRTDd2 control) (PfCRT^Dd2 [1]; [test solute] = 2 mM)","PfCRT-mediated [3H]CQ transport, cis-inhibition (% PfCRTEcu1110 control) (PfCRT^Ecu1110 [2]; [test solute] = 0.5 mM)","PfCRT-mediated [3H]CQ transport, cis-inhibition (% PfCRTEcu1110 control) (PfCRT^Ecu1110 [2]; [test solute] = 1 mM)","[3H]CQ transport (% PfCRTEcu1110 control), cis-inhibition, PfCRTEcu1110 (PfCRT^Ecu1110 [2]; [test solute] = 0.5 mM)","[3H]CQ transport (% PfCRTEcu1110 control), cis-inhibition, PfCRTEcu1110 (PfCRT^Ecu1110 [2]; [test solute] = 1 mM)","[3H]CQ transport (% PfCRTEcu1110 control), cis-inhibition, PfCRTEcu1110 (PfCRT^Ecu1110 [2]; [test solute] = 2 mM)","PfCRT-mediated [3H]CQ transport, trans-stimulation (% PfCRT3D7 control) (PfCRT^3D7; [5])","PfCRT-mediated [3H]CQ transport, trans-stimulation (% PfCRT3D7 control) (PfCRT^3D7; [6])","PfCRT-mediated [3H]CQ transport, trans-stimulation (% PfCRTDd2 control) (PfCRT^Dd2 [3]; [5])","PfCRT-mediated [3H]CQ transport, trans-stimulation (% PfCRTDd2 control) (PfCRT^Dd2 [3]; [6])","[3H]CQ transport (% PfCRTDd2 control), trans-stimulation, PfCRTDd2 (PfCRT^Dd2 [3]; [7])","[3H]CQ transport (% PfCRTDd2 control), trans-stimulation, PfCRTDd2 (PfCRT^Dd2 [3]; [8])","PfCRT-mediated [3H]CQ transport, trans-stimulation (% PfCRTEcu1110 control) (PfCRT^Ecu1110 [4]; [5])","PfCRT-mediated [3H]CQ transport, trans-stimulation (% PfCRTEcu1110 control) (PfCRT^Ecu1110 [4]; [6])","[3H]CQ transport (% PfCRTDd2 control), trans-stimulation, PfCRTEcu1110 (PfCRT^Ecu1110 [4]; [7])","[3H]CQ transport (% PfCRTDd2 control), trans-stimulation, PfCRTEcu1110 (PfCRT^Ecu1110 [4]; [8])","PfCRT-mediated [3H]CQ transport, cis-inhibition (% PfCRTEcu1110 control) (PfCRT^Ecu1110 [2]; [test solute] = 2 mM)","[3H]CQ transport (% PfCRT3D7 control), trans-stimulation, PfCRT3D7 (PfCRT^3D7; SEM)"
HAGEYG [HG-6],36 ± 2.1 % PfCRTDd2 control,22 ± 0.9 % PfCRTDd2 control,9.3 ± 0.1 % PfCRTDd2 control,35 ± 4.6 % PfCRTEcu1110 control,27 ± 4.1 % PfCRTEcu1110 control,11 ± 0.5 % PfCRTEcu1110 control,9.0 ± 0.05 % PfCRTEcu1110 control,4.0 ± 0.01 % PfCRTEcu1110 control,136 ± 3.6 % PfCRT3D7 control,190 ± 4.2 % PfCRT3D7 control,101 ± 3.3 % PfCRTDd2 control,98 ± 2.5 % PfCRTDd2 control,101 ± 3.3 % PfCRTDd2 control,98 ± 2.5 % PfCRTDd2 control,98 ± 2.4 % PfCRTEcu1110 control,96 ± 3.3 % PfCRTEcu1110 control,30 ± 1.5 % PfCRTEcu1110 control,29 ± 1.3 % PfCRTEcu1110 control,,
LSFPTTK [LK-7],48 ± 2.6 % PfCRTDd2 control,37 ± 1.7 % PfCRTDd2 control,18 ± 0.7 % PfCRTDd2 control,47 ± 1.1 % PfCRTEcu1110 control,33 ± 2.4 % PfCRTEcu1110 control,15 ± 0.1 % PfCRTEcu1110 control,10 ± 0.4 % PfCRTEcu1110 control,5.0 ± 0.05 % PfCRTEcu1110 control,93 ± 3.2 % PfCRT3D7 control,94 ± 3.6 % PfCRT3D7 control,98 ± 4.3 % PfCRTDd2 control,95 ± 3.3 % PfCRTDd2 control,98 ± 4.3 % PfCRTDd2 control,95 ± 3.3 % PfCRTDd2 control,97 ± 3.3 % PfCRTEcu1110 control,93 ± 3.7 % PfCRTEcu1110 control,29 ± 1.6 % PfCRTEcu1110 control,29 ± 1.8 % PfCRTEcu1110 control,17 ± 0.4 % PfCRTEcu1110 control,0.1 ± 0.01
VHLT [VT-4],51 ± 2.0 % PfCRTDd2 control,39 ± 2.8 % PfCRTDd2 control,16 ± 0.4 % PfCRTDd2 control,56 ± 4.1 % PfCRTEcu1110 control,39 ± 4.1 % PfCRTEcu1110 control,18 ± 0.3 % PfCRTEcu1110 control,,9.0 ± 0.2 % PfCRTEcu1110 control,97 ± 3.2 % PfCRT3D7 control,95 ± 4.7 % PfCRT3D7 control,97 ± 4.6 % PfCRTDd2 control,98 ± 3.2 % PfCRTDd2 control,97 ± 4.6 % PfCRTDd2 control,98 ± 3.2 % PfCRTDd2 control,99 ± 3.2 % PfCRTEcu1110 control,97 ± 3.6 % PfCRTEcu1110 control,30 ± 1.3 % PfCRTEcu1110 control,29 ± 1.5 % PfCRTEcu1110 control,27 ± 1.4 % PfCRTEcu1110 control,

# Reference: publication PMC7413254 (Nature Communications, 2020)
